# In patent US9893302B2, “Heterocyclic fluorescent dyes and method of production thereof” (BASF SE, priority 2013, dated 2018):
# Several values for one entry are separate records, joined by “and”; a condition that tells them apart may be missing. Identical values can stand only once. Like-named read-outs stand apart in the source and are kept apart here.
# Key:
# [1] = Spectroscopic data: absorption, emission, Stokes shift, extinction coefficient, fluorescence quantum yield; assay type: physicochemical; details: for φfl (fluorescence quantum yield): standards Rhodamine B or Rhodamine 6G in EtOH
# Description: Spectroscopic data of compounds 3a, 3b and 3d as well as comparative compounds
# Rhodamine B in EtOH or Rhodamine 6G in EtOH are used as standards for quantum yield measurements.
# [2] = Solubility in typical organic solvents; assay type: physicochemical; details: for solubility compared with compound V-1: in typical organic solvents; for solubility: organic solvent or mixture
# Description: Reference is made to the below table.
# [3] = in CHCl3, read-out: Solubility in CHCl3
# [4] = in Toluene, read-out: Solubility in Toluene
fluorescence quantum yield [1],Stokes shift ([1]; solvent CHCl3) [cm⁻¹],maxλabs ([1]; solvent CHCl3) [nm],maxλem ([1]; solvent CHCl3) [nm],εmax ([1]; solvent CHCl3) [M⁻¹ cm⁻¹],φfl (fluorescence quantum yield) ([1]; solvent CHCl3),solubility compared with compound V-1 [2],"solubility [2, 3]","solubility [2, 4]",melting point,Stokes shift ([1]; solvent DMF) [cm⁻¹],maxλabs ([1]; solvent DMF) [nm],maxλem ([1]; solvent DMF) [nm],εmax ([1]; solvent DMF) [M⁻¹ cm⁻¹],φfl (fluorescence quantum yield) ([1]; solvent DMF),SMILES
–,200,593,600,110000,0.19,–,272 µM and 126 µg/mL,6.13 µM and 2.85 µg/mL,–,220,593,601,91000,0.22,COc1cc2c(cc1OC)C1=C3C(=O)N4C=Cc5cc(OC)c(OC)cc5C4=C3C(=O)N1C=C2 [V-1]
–,210,643,652,120000,0.05,–,–,–,–,240,645,655,107000,0.02,CC(C)(C)c1cc(C(C)(C)C)c2oc3c(c2c1)C=CN1C(=O)C2=C4c5oc6c(C(C)(C)C)cc(C(C)(C)C)cc6c5C=CN4C(=O)C2=C31 [V-2]

# The next lines start with the compound.
SMILES,fluorescence quantum yield [1],Stokes shift ([1]; solvent CHCl3) [cm⁻¹],maxλabs ([1]; solvent CHCl3) [nm],maxλem ([1]; solvent CHCl3) [nm],εmax ([1]; solvent CHCl3) [M⁻¹ cm⁻¹],φfl (fluorescence quantum yield) ([1]; solvent CHCl3),solubility compared with compound V-1 [2],"solubility [2, 3]","solubility [2, 4]",melting point,Stokes shift ([1]; solvent DMF) [cm⁻¹],maxλabs ([1]; solvent DMF) [nm],maxλem ([1]; solvent DMF) [nm],εmax ([1]; solvent DMF) [M⁻¹ cm⁻¹],φfl (fluorescence quantum yield) ([1]; solvent DMF)
COc1cc2c(cc1OC)C1=C3C(=O)N4C=C(c5ccccc5)c5cc(OC)c(OC)cc5C4=C3C(=O)N1C=C2c1ccccc1 [3a],around 80%,140,600,605,100000,0.89,order of magnitude higher,3460 µM and 2110 µg/mL,47 µM and 28.6 µg/mL,–,–,–,–,–,–
COc1cccc(C2=CN3C(=O)C4=C5c6cc(OC)c(OC)cc6C(c6cccc(OC)c6)=CN5C(=O)C4=C3c3cc(OC)c(OC)cc32)c1 [3b],around 80%,220,601,609,85000,0.85,order of magnitude higher,955 µM and 639 µg/mL,53.4 µM and 35.7 µg/mL,–,–,–,–,–,–
CC(C)(C)c1cc(C(C)(C)C)c2oc3c(c2c1)C(c1ccccc1)=CN1C(=O)C2=C4c5oc6c(C(C)(C)C)cc(C(C)(C)C)cc6c5C(c5ccccc5)=CN4C(=O)C2=C31 [3d],around 80%,160,654,661,150000,0.81,order of magnitude higher,–,–,> 400 °C (dec.),–,–,–,–,–
